Results on three compounds are retold here after publication PMC9538324 (Journal of medical virology, 2022).

Like-named read-outs stand apart in the source and are kept apart here.

In data set [1] the test system is SARS-CoV-2. The conditions noted are these: A549-ACE2 cells; cited from earlier work.
Data set [2] has as its system SARS-CoV-2. The conditions noted are these: Vero cells; cited from earlier work.
In another data set the test system is Vero cells. To be noted: cited from earlier work.
The subject of another data set is Wuhan PV. Format: cell-based, SARS-CoV-2.
The subject of another data set is Omicron PV. Format: cell-based, SARS-CoV-2.
Data set [3] concerns A549-ACE2 cells. In words: cells. To be noted: Homo sapiens, A549-ACE2, read-out: EC50 for PLD induction.
In data set [4] the test system is A549-ACE2 cells.
Data set [5] deals with SARS-CoV-2. The conditions noted are these: Vero cells, anti-NP antibody, Mount Sinai; cited from earlier work.
Data set [6] relates to SARS-CoV-2. The conditions noted are these: A549-ACE2 cells, RT-PCR and plaque assay, Institut Pasteur; cited from earlier work.
A further data set concerns Delta PV. Format: cell-based, SARS-CoV-2.
For the next data set, the system named is VSV-G. Format: cell-based, Vesicular stomatitis virus.
Another data set is described as follows: in vitro. To be noted: human.
The test system of data set [7] is SARS-CoV-2. To be noted: Huh7 cells; cited from earlier work.
Another data set relates to AXL. To be noted: read-out: IC50 against AXL; cited from earlier work.
The test system of data set [8] is SARS-CoV-2. To be noted: Calu-3 cells; cited from earlier work.
The test system of data set [9] is SARS-CoV-2 (USA-WA1 strain). The experiment in a line: microbe, parasite or virus in culture. Format: cell-based. The conditions noted are these: Severe acute respiratory syndrome coronavirus 2, A549-ACE2, read-out: EC50 against SARS-CoV-2.
The test system of another data set is rVSV-EBOV. In words: microbe, parasite or virus in culture. The conditions noted are these: Zaire ebolavirus, A549-ACE2, read-out: EC50 against rVSV-EBOV. Format: cell-based, Ebola virus.
For data set [10], the system named is A549-ACE2 cells. In words: MTT cell viability assay. The conditions noted are these: 0.63 μM.
Data set [11] relates to A549-ACE2 cells. The conditions noted are these: A549-ACE2 infection assay.
[12] abbreviates: A549-ACE2 cells, compared with amodiaquine.

Take `CCc1nc(C(N)=O)c(Nc2ccc(N3CCC(N4CCN(C)CC4)CC3)c(OC)c2)nc1NC1CCOCC1` [Gilteritinib, gilteritinib]: the “lowest concentration tested showing inhibition of virus replication” value in the data set on SARS-CoV-2 [1] was 0.5 µM. Further, the EC50 in the data set with SARS-CoV-2 [2] was 6.75 µM; in the data set on A549-ACE2 cells [3], 0.39 µM; with SARS-CoV-2 [5], roughly 0.8 µM; with SARS-CoV-2 [6], 0.06 to 0.12 µM; in the data set with SARS-CoV-2 [7] it was 0.2 µM; in data set [9] it was roughly 0.1 µM. Besides, the EC50 in the data set with rVSV-EBOV amounted to 0.25 µM. In addition, in the data set on Vero cells, the CC50 is 37.2 µM. For the same compound, the “Wuhan PV infection compared to VSV-G” value with Wuhan PV is reported as “small decrease”. Moreover, in the data set on Omicron PV, the “infection inhibition against Omicron PV compared to VSV-G” value was “significant infection inhibition”. In the data set on A549-ACE2 cells [4] (setting [12]), the “PLD induction (in words)” value is “induces a small amount of PLD”. For the same compound, in the data set on Delta PV, the “Delta PV infection compared to VSV-G” value is recorded as “small decrease”. Besides, in the data set with VSV-G, the “VSV-G infection relative to the level in imatinib- or nintedanib-treated cells” value is “around 50%”. In “in vitro”, this compound gave a fold induction of 15. Also, in the data set with AXL, the IC50 was 0.041 µM. The anti-SARS-CoV-2 activity result in the data set with SARS-CoV-2 [8] is reported as “no detectable activity”. Moreover, in the data set on A549-ACE2 cells [10], the “reduction of cell viability by MTT assay” value is on record as “approximately 30%”.

For `COC(=O)c1ccc2c(c1)NC(=O)/C2=C(\Nc1ccc(N(C)C(=O)CN2CCN(C)CC2)cc1)c1ccccc1` [Nintedanib, nintedanib], the “PLD induction (in words)” value in the data set on A549-ACE2 cells [4] (setting [12]) is given as “strong PLD inducers”. For the same compound, the “cytotoxicity (in words)” value in the data set with A549-ACE2 cells [11] was “little cytotoxicity”.

Turning to `Cc1ccc(NC(=O)c2ccc(CN3CCN(C)CC3)cc2)cc1Nc1nccc(-c2cccnc2)n1` [Imatinib, imatinib], the “PLD induction (in words)” value with A549-ACE2 cells [4] was “strong PLD inducers”.
